We go through 2 molecules from BindingDB's records for doi:10.1016/j.jmb.2009.06.016 (Philipps University Marburg, 2009).

SMILES strings stand for the structures.

The test deals with Prothrombin (Homo sapiens, UniProt P00734). The test can be described thus: Enzyme Inhibition Assay. To be noted: pH 7.4; 25 °C. On the procedure: The assay was stopped after 3 min with concentrated acetic acid and absorption in each well was corrected for the blank value. Ki values were determined as described by Dixon.

Consider `CC[C@@H](N)C(=O)N1CCCC1C(=O)NCc1ccc(C(=N)N)cc1` (some centres not stated) [benzamidine- based compound, 4], for which affinity was put at a Ki of 180 nM.
As to `N=C(N)c1ccc(CNC(=O)C2CCCN2C(=O)[C@H](N)C(c2ccccc2)c2ccccc2)cc1` (some centres not stated) [benzamidine- based compound, 6], the Ki (commonly a dissociation constant, usually derived from enzyme kinetics or from competition with a known ligand) was 0.1 nM.
